{"source": "patent US20040248871A1", "about": "“Use of lysyl oxidase inhibitors for cell culture and tissue engineering” (priority 2001, published 2004)", "key": {"[1]": {"tested_on": "hypertrophic chondrocytes of chicken embryos", "test": "Reversibility of effects on bridgings of collagen IX chains in cell lawn of hypertrophic chondrocytes (fluorography)", "assay_type": "cell-based", "settings": "washings with PBS then medium without βAPN", "protocol": "Chondrocytes of the cranial section of the sternum were inoculated at a high concentration (5 million cells per P35 Petri dish) then subjected to 24 hours of radio-labelling with proline 14C on the 7th, 14th and […] day of culture (respectively day 7, day 14 and day 21).\nβAPN was present (+) or absent. (−) for the entire duration of the culture, or present only during the first week ((+))."}, "fibroblasts": {"tested_on": "fibroblasts", "test": "Fibroblasts cultured in monolayer: cell count and MTT viability test", "assay_type": "cell-based, human", "text": "(§1) The support of the reconstructed skin model is constituted by a dermal substrate (DS) with a base of collagen-glycosaminoglycan cross-linked by chitosan according to the technique published by Duplan-Perrat et al (J Invest Dermatol 2000 114:365). Fibroblasts are inoculated the inside of the DS in order to obtain an equivalent dermis. The reconstituted skin (RS) is obtained by inoculating the keratinocytes after 15 days (day 15) of culture in equivalent dermis. The dermal fibroblasts are obtained from explants of human prepuces after dermal-epidermal separation and cultured in monolayer in DMEM medium (Sigma) supplemented by 10% fœtal calf serum, 4 mM L-glutamine, EGF (Austral Biologic) at 10 ng/ml, penicillin at 100 UI/ml, gentamicin at 100 μg/ml and amphotericin B at 1 μg/ml. The keratinocytes are from a human skin biopsy sample after dermal-epidermal separation by trypsination. The cells are inoculated nutritive layers (irradiated fibroblasts) and cultured in DMEM and HAM F12 at 30% supplemented with fœetal calf serum at 10%, EGF at 10 ng/ml, hydrocortisone at 1.6 ng/ml, umulin at 0.12 UI/ml, choleratoxin at 0.1 nM, triiodothyronine at 0.2 μM, adenine at 24 μg/ml, 4 mM L-Glutamine, penicillin at 100 UI/ml, gentamicin at 100 μg/ml and amphotericin B at 1 μg/ml.\nIn fact, the number of these cells is reduced by approximately 50% compared to the control when they are cultured in the presence of 600 μg/ml of βAPN. […] The results of the MTT viability test confirm those of the cell count. […] It must be emphasized that βAPN at 200 μg/ml can optionally cause an increase in cell activity (proliferation and viability) on the fibroblasts inoculated at a low density, and on the fibroblasts and the keratinocytes inoculated at a high density."}, "Lysyl oxidase": {"tested_on": "Lysyl oxidase", "test": "Lysyl oxidase activity assay with tritiated elastin substrate on culture media of chicken embryo chondrocytes", "assay_type": "biochemical", "protocol": "(§2) The Lysyl oxidase activity was assayed with 300,000 dpm of labelled elastin on the Lysine, substrate of the enzyme (Shackelton and Hulmes Anal. Biochem. (1990) 185: 359-362). The determination of the presence of Lysyl oxidases in the cultures of chondrocytes is carried out according to the standard methods of immunodecoration of the supports onto which the bands separated from the proteins extracted from the corresponding culture media or from the cell lawns have been transferred.\nLysyl oxidase activities (inhibited by βAPN and assayed by the production of tritiated water) are secreted in the culture media. The specific activity recorded in the media is stronger on the 7th day of culture than on the 13th day. The extracellular matrix being richer in natural collagenic substrates of the Lysyl oxidase activity on the 13th day of culture, it would thus retain the enzyme in the cell lawn."}, "[2]": {"tested_on": "normal human chondrocytes", "test": "Normal human chondrocytes in 3D culture in collagen-GAG-chitosan sponge (immunofluorescence, histology)", "assay_type": "cell-based", "settings": "3D culture in sponge, three months", "text": "The chondrocytes obtained after ligamentoplasty have been used for the three-dimensional culture in collagen-GAG-chitosan sponge (Collombel et al. 1987)* in the presence or absence of BAPN (FIGS. 7 and 8). * Collombel C., Damour O., Gagneu C., Poinsignon F., Echinard C., Marichy J.: Peau artificielle et son procédé de fabrication. French Patent No. 87-08752 (15th Jun. 1987), European Patent No. 88-420194.8 (14th Jun. 1988).\nNevertheless, human chondrocytes dedifferentiated in terms of the period of culture necessary for their multiplication in culture on plastic, can advantageously be placed in three-dimensional (3D) culture in the presence of βAPN. The placing in 3D culture not being sufficient, in itself, to ensure a return to the cartilage phenotype lost during the 2-dimensional culture in the presence of serum, as was described for 3D cultures in agarose.\n3 D culture in sponges of collagen-GAG-chitosan in the presence of serum and βAPN of normal human chondrocytes. The chondrocytes were previously multiplied, and dedifferentiated, in 2D culture on plastic."}, "[3]": {"tested_on": "standard purified aortic LO", "test": "Lysyl oxidase activity assay with tritiated elastin substrate on standard purified aortic LO", "assay_type": "biochemical", "settings": "Experiment 2, substrate no. 2, standard purified aortic LO", "protocol": "as §2"}, "[4]": {"tested_on": "reconstructed skin (fibroblasts and keratinocytes)", "test": "Retraction (surface area) of reconstructed skins", "assay_type": "cell-based, human", "settings": "for surface area compared to the initial original surface area: 35 days of culture", "text": "The method allowing the formation of the reconstructed skin is that described in the French Patent 87-08252 of the 15th Jun. 1987.\nas §1\nA mixture with a base of bovine collagen of type I and III (72%), glycosaminoglycan (8%) cross-linked by chitosan (20%) is poured into 6-well plates. The dermal substrates thus obtained are then frozen at −80° C. and lyophilized. The fibroblasts are inoculated in the dermal substrate, rehydrated and sterilized at a rate of 250,000 cells per cm^2. Keratinocytes are inoculated after 15 days (day 15) at a density of 200,000 to 250,000 cells/cm^2. The reconstructed skins are cultured for 8 days in immersion, in the medium described previously supplemented with 50 μg/ml of vitamin C. Then the reconstructed skins are raised to the air-liquid interface using a simplified culture medium with a DMEM base, supplemented with fœtal calf serum, EGF, hydrocortisone, umulin, L-glutamine, penicillin, gentamicin, and amphotericin B, and ascorbic acid, at the concentrations described above. The reconstructed skins are cultured up to day 60. Samples are taken at day 30 and day 60 for the different analyses.\nβAPN (50 μg/ml) is added immediately upon inoculation, to the culture medium which is renewed every 2 days and applied to the cultures of chondrocytes as well as to those of fibroblasts then of keratinocytes during the formation of the reconstructed skin."}}, "note": "Several values for one entry are separate records, joined by “and”; a condition that tells them apart may be missing. Equal values may be shown once.", "data": [{"smiles": "N#CCCN", "note": "[βAPN, β-aminopropionitrile]", "values": [{"measurement": "reversibility of the modifications in the bridgings between chains of collagen IX after elimination of βAPN", "setting": "[1]", "result": "≤ 6", "unit": "days"}, {"measurement": "proliferation of the fibroblasts", "setting": "fibroblasts; 200 μg/ml", "result": "slightly increased"}, {"measurement": "effect on the viability and the multiplication", "setting": "fibroblasts; 200 μg/ml, isolated cultures", "result": "little effect"}, {"measurement": "reduction of the number of cells compared to the control", "setting": "fibroblasts; 600 μg/ml", "result": "approximately 50%"}, {"measurement": "concentration with inhibiting effect on proliferation", "setting": "fibroblasts; cell count and MTT", "result": "greater than 500 μg/ml"}, {"measurement": "toxic effect on cells at confluence", "setting": "fibroblasts; up to 800 μg/ml", "result": "no toxic effect"}, {"measurement": "dpm + βAPN (Lysyl oxidase activity assay)", "setting": "Lysyl oxidase; Experiment 1, substrate no. 1, culture − FCS, + cys, Day 3, caudal chondrocytes, 15% medium P35", "result": "674 dpm and 718 dpm"}, {"measurement": "dpm + βAPN (Lysyl oxidase activity assay)", "setting": "Lysyl oxidase; Experiment 2, substrate no. 2, culture + FCS, − cys, Day 7, caudal chondrocytes, 25% medium P35", "result": "5296 dpm and 6210 dpm"}, {"measurement": "dpm + βAPN (Lysyl oxidase activity assay)", "setting": "Lysyl oxidase; Experiment 2, substrate no. 2, culture + FCS, − cys, Day 7, cranial chondrocytes, 100% medium P35", "result": "5800 dpm and 6536 dpm"}, {"measurement": "dpm + βAPN (Lysyl oxidase activity assay)", "setting": "Lysyl oxidase; Experiment 2, substrate no. 2, culture + FCS, − cys, Day 13, caudal chondrocytes, 75% medium P35", "result": "4344 dpm and 4702 dpm"}, {"measurement": "dpm + βAPN (Lysyl oxidase activity assay)", "setting": "Lysyl oxidase; Experiment 2, substrate no. 2, culture + FCS, − cys, Day 13, cranial chondrocytes, 100% medium P35", "result": "4580 dpm and 4618 dpm"}, {"measurement": "intensity of marking of the collagen I", "setting": "[2]", "result": "strong decrease"}, {"measurement": "intensity of marking of the collagen II and of the aggrecan (cartilage markers)", "setting": "[2]", "result": "clear increase"}, {"measurement": "dpm + βAPN (Lysyl oxidase activity assay)", "setting": "[3]", "result": "4340 dpm and 4762 dpm"}, {"measurement": "surface area compared to the initial original surface area", "setting": "[4]; 50 μg/ml", "result": 50, "unit": "%"}, {"measurement": "surface area compared to the non-treated control", "setting": "[4]; 50 μg/ml, after two weeks at the air-liquid interface", "result": "do not show any significant difference"}, {"measurement": "surface area compared to the initial original surface area", "setting": "[4]; 200 μg/ml", "result": 40, "unit": "%"}, {"measurement": "surface area compared to the initial original surface area", "setting": "[4]; 500 μg/ml", "result": 40, "unit": "%"}, {"measurement": "reduction in surface area compared to original state", "setting": "[4]; 500 μg/ml, immersed, before raising to the air-liquid interface", "result": 17, "unit": "%"}, {"measurement": "surface area compared to that of the control", "setting": "[4]; 200 or 500 μg/ml, after two weeks at the air-liquid interface", "result": "significantly greater surface area"}, {"measurement": "retraction compared to the control", "setting": "[4]; skins still in immersed culture", "result": "significant dose-dependent reduction"}]}]}
